Source: article PMC12561453, “Synthesis and Structure–Activity Relationship Study of 2-(amino)quinazolin-4(3H)-one Derivatives as Potential Inhibitors of Methicillin-Resistant Staphylococcus aureus (MRSA)” (Antibiotics, 2025)
Converted amounts (≈) assume the structure as drawn. Read-outs that look alike come from different tables or passages of the source.

Columns and labels:
[1] = Plasma protein binding, human; assay type: in vitro ADME; settings: read-out: PPB human, plasma protein binding rate (converted)
Experimental: (§1) Table S2. Result of microsomal stability, plasma protein binding rate, and CYP inhibition of 6l and 6y
(§2) Compound MSa PPBrat human rat human 1A2 2C9 2C19 2D6 3A4
(§3) a % of remaining after 30 min. b plasma protein binding rate (%) at 5 μM concentrations. c % of CYP
(§4) inhibition in human liver microsomes at 10 μM concentrations. […]

[2] = test system: S. aureus USA300 JE2 expressing GFP in H460 cells; assay: microbe, parasite or virus in culture; assay type: cell-based, Staphylococcus aureus; settings: for MIC50: Staphylococcus aureus, USA300, 24 h, read-out: H460 Assay MIC50 (MIC50 ex vivo)
Text: Staphylococcus aureus, including MRSA, can invade host cells and replicate intracellularly, which complicates treatment with current therapies. To evaluate the intracellular antibacterial activities of the selected compounds, the fifteen compounds tested for cytotoxicity were further assessed using a cell infection model based on H460 human lung epithelial cells, which mimic MRSA-mediated pneumonia. H460 cells were infected with the USA300 JE2 expressing green fluorescent protein (GFP) and subsequently treated with the compounds in a dose–response manner, along with three reference antibiotics: vancomycin, linezolid, and erythromycin. After 24 h of incubation, bacterial loads were quantified by measuring GFP fluorescence in each well. MIC50 values determined in the H460 infection model (MIC50 ex vivo) were generally higher than those obtained from the in vitro tests, likely due to either limited compound penetration into host cells or reduced antibacterial effect of the compounds against intracellular bacteria (Figure 3, Table 2). […] These findings underscore the potential of compound 6y as a promising lead for further development as a novel antistaphylococcal agent.
To see the ex vivo antimicrobial activity of the compound, the human lung carcinoma cell line H460 (ATCC #HTB-177) was used. The H460 cells were cultured in RPMI 1640 medium with 10% fetal bovine serum (FBS) and in a 96-well microplate at 37 °C and 5% CO2. Cell lines were cultured for 2 days, until they reached full confluence in the well. S. aureus (USA300-containing and pCM29-encoding GFP) was cultured in CAMHB with 10 µg/mL of chloramphenicol, and bacterial cells were harvested. After washing the bacterial cells with phosphate-buffered saline (PBS) and suspending them in RPMI, infected H460 cells with S. aureus (1 × 10^7 CFU) and incubated them for 2.5 h. Samples were washed three times with PBS. Then, cells were treated with gentamicin (50 µg/mL of gentamicin in RPMI) and incubated for 1 h. Samples were washed with PBS, RPMI-containing diluted compounds were added, and then they were incubated at 37 °C in 5% CO2 for 24 h. To detect the Green fluorescent protein (GFP) signal, an Ensight multimode plate reader and Opera Phenix Plus (Revvity, Waltham, MA, USA) were used.
Ex vivo infection model images were generated using the Opera Phenix Plus high-content imaging system. Images were obtained by a confocal microscope with a 20× water objective lens. To detect the bacteria fluorescence signal (GFP), the Alexa 488 channel (488 nm laser/500–550 filter, Thermo Fisher Scientific, Waltham, MA, USA) was used, and the brightfield channel was used for H460 cell images.
Figure 3 Antibacterial activities of 2-(amino)quinazolin-4(3H)-one derivatives in the H460 infection model. H460 cells were infected with S. aureus USA300 JE strain expressing GFP, followed by treatment with serial dilutions of 2-(amino)quinazolin-4(3H)-one derivatives. After incubation at 37 °C for 24 h with 5% CO2, fluorescence signals of the bacteria were detected at 488 nm/510 nm using a multilabel plate reader.

CYP2C9 = biological target: T1, CYP2C9 (Homo sapiens, UniProt P11712); assay: CYP inhibition in human liver microsomes, 2C9; assay type: in vitro ADME
T1 construct: from tissue; host or cells: human liver microsomes
T1 sequence (P11712 whole entry): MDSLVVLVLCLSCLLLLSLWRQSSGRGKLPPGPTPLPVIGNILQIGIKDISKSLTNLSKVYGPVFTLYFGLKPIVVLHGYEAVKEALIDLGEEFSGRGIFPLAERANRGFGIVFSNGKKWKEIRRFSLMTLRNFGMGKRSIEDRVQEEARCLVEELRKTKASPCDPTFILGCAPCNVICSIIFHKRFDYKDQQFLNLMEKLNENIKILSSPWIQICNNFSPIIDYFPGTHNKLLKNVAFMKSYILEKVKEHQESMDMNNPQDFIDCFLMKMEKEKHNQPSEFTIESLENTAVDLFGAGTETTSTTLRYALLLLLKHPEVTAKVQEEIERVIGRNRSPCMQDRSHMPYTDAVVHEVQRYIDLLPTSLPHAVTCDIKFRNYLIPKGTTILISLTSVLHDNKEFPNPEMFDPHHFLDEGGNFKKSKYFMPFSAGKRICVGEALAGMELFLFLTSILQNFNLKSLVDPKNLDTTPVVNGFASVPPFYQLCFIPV
Experimental: as §1, §2, §3, §4

in vitro = assay type: cell-based; settings: Chinese hamster
Experimental: (§5) Table S1. Results of hERG binding assay and cytotoxicity of 6l and 6y
(§6) Compound hERGa CytotoxicityVERO HFL-1 L929 NIH 3T3 CHO-K1
(§7) a % inhibition at 10 μM concentrations. b IC50 values in various mammalian cell lines. […]

hERG = hERG (Homo sapiens, UniProt Q12809); assay: hERG binding assay
Chain of hERG (Q12809 whole entry): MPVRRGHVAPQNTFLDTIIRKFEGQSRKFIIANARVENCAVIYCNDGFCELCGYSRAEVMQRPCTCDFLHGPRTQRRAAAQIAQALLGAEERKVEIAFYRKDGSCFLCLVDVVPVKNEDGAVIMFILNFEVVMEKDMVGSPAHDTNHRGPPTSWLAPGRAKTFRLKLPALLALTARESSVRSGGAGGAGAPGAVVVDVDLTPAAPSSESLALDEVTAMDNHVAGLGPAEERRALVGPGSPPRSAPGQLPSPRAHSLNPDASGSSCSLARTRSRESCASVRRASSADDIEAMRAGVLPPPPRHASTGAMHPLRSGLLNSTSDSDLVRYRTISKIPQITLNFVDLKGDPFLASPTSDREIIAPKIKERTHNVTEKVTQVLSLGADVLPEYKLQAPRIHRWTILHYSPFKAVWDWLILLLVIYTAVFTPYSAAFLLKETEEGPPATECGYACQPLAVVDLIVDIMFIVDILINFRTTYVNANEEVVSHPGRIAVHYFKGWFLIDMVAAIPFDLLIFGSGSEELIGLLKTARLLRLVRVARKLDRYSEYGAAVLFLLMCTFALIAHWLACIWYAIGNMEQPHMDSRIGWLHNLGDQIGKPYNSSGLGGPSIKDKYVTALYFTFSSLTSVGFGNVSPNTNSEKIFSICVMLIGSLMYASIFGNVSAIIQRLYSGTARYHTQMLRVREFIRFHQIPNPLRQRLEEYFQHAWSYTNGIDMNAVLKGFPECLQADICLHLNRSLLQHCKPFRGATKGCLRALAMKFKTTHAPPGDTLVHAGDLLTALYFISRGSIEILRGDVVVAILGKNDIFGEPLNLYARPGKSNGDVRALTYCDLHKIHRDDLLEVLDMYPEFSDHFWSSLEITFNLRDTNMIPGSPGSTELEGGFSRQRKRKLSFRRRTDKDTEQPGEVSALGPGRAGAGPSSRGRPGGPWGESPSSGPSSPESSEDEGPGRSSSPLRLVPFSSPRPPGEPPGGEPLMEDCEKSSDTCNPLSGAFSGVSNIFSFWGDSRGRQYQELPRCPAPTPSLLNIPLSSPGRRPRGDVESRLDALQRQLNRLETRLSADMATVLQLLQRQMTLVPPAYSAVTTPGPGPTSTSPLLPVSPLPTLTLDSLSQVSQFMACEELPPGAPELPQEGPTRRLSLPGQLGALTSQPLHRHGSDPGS
Experimental: as §5, §6, §7

[3] = Cytotoxicity in L929 cells; assay type: cell-based; settings: mouse, L929 cells (NCTC clone 929, fibroblast cell line)
Experimental: as §5, §6, §7

[4] = Rat pharmacokinetic study; assay type: in vivo; settings: male rats
Experimental: Table S3. Rat pharmacokinetic study of 6l and 6y
Parametersa I.V., 2 mg/kg P.O., 10 mg/kg I.V., 5 mg/kg P. O . , 1 0 mg/kg
Cmax ([…]) NA 0.9 NA 0.2
CL (L/h/kg) 0.25 NA 1.8 NA
a All results are mean of experiments using three male rats. b NA: not applicable

[5] = Cytotoxicity in VERO cells; assay type: cell-based; settings: African green monkey, VERO cells (kidney cell line)
Experimental: as §5, §6, §7

[6] = Microsomal stability, rat; assay type: in vitro ADME; settings: rat microsomes
Experimental: as §1, §2, §3, §4

CYP3A4 = biological target: T2, CYP3A4 (Homo sapiens, UniProt P08684); assay: CYP inhibition in human liver microsomes, 3A4; assay type: in vitro ADME
T2 construct: from tissue; host or cells: human liver microsomes
T2 sequence (P08684 whole entry): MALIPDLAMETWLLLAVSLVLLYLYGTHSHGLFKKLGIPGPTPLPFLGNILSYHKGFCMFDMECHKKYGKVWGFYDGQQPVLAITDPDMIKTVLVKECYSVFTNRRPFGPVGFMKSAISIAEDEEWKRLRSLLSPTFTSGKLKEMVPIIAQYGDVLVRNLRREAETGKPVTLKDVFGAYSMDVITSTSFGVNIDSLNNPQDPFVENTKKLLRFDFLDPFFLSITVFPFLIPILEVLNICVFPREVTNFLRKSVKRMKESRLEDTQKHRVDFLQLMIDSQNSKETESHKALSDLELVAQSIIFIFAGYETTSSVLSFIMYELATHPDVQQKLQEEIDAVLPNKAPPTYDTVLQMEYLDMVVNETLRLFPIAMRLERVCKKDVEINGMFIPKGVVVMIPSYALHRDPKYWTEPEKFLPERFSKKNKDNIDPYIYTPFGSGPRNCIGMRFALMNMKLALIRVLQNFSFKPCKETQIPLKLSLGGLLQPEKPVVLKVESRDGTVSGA
Experimental: as §1, §2, §3, §4

[7] = rat, in vivo, iv, I.V., 5 mg/kg

Row | SMILES | fraction unbound at 5 μM [1] | MIC50 [2] [µM] | inhibition at 10 µM (CYP2C9) [%] | IC50 (in vitro) [µM] | inhibition at 10 µM (hERG) [%] | IC50 [3] [µM] | Ft ([4]; P.O., 10 mg/kg) [%] | IC50 [5] [µM] | MS rat, % of remaining after 30 min [6] [%] | inhibition at 10 µM (CYP3A4) [%] | further results
1 | O=c1[nH]c(Nc2cc(Cl)cc(Cl)c2)nc2cc(Cl)ccc12 [6l, 7-Chloro-2-((3,5-dichlorophenyl)amino)quinazolin-4(3H)-one] | 0.002 | 12.1 (≈ 4.12 µg/mL) | 18.2 | 11 | 37.8 | 31.4 | 15.6 | 8.5 | 104.7 | 32.2 | AUC ([4]; I.V., 2 mg/kg): 8500 ng·h/mL; CL ([4]; I.V., 2 mg/kg): 4.17 mL/min/kg; T1/2 ([4]; I.V., 2 mg/kg): 2.2 h; Vss ([4]; I.V., 2 mg/kg): 1.6 L/kg; AUC ([4]; P.O., 10 mg/kg): 6600 ng·h/mL; Cmax ([4]; P.O., 10 mg/kg): 0.9; T1/2 ([4]; P.O., 10 mg/kg): 5.7 h; Tmax ([4]; P.O., 10 mg/kg): 2.5 h
2 | O=c1[nH]c(NCc2ccc(F)c(F)c2)nc2cc(Cl)ccc12 [6y, 7-Chloro-2-((3,4-difluorobenzyl)amino)quinazolin-4(3H)-one] | 0.002 | 1.9 (≈ 0.611 µg/mL) | 91 | 51.6 | 11.4 | 79 | 33.4 | 50.5 | 53.8 | 91.4 | distortion of H460 cell morphology (in words) ([2]; 6.25 µM, brightfield images, 24 h): relatively minimal distortion of H460 cell morphology; bacterial load in infected H460 cells (in words) ([2]; 6.25 µM, confocal images, 24 h): markedly reducing the bacterial load; H460 Assay MIC50 (MIC50 ex vivo) ([2]; H460 cells infected with USA300 JE2-GFP, 24 h, GFP fluorescence): 1.9 µM; clearance [4, 7]: 30 mL/min/kg; half-life [4, 7]: 8.5 h; AUC ([4]; rat, in vivo, iv, I.V., 5 mg/kg, read-out: AUC): 2800 ng·h/mL; Vd ([4]; rat, in vivo, iv, I.V., 5 mg/kg, read-out: Vss): 5.2 L/kg; half-life ([4]; rat, in vivo, po, P.O., 10 mg/kg): 3.6 h; AUC ([4]; rat, in vivo, po, P.O., 10 mg/kg, read-out: AUC): 1900 ng·h/mL; Cmax ([4]; rat, in vivo, po, P.O., 10 mg/kg, read-out: Cmax): 200 ng/mL; Tmax ([4]; rat, in vivo, po, P.O., 10 mg/kg, read-out: Tmax): 5.3 h
